This passage reports IC50 results from patent publication US8299056B2 (Signal Pharmaceuticals, LLC, priority 2008, dated 2012).

For this assay, the target named is T1, Syk (Homo sapiens, UniProt P43405).
T1 construct: purchased Carna Biosciences
As to the kind of experiment: Syk HTRF assay. Type of assay: biochemical. The procedure, abridged: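 Read-out is the 665 nm/615 nm time-resolved fluorescence ratio after EDTA stop and Eu-anti-phosphotyrosine plus streptavidin-DyLight 647 detection. Reaction ran 1 h at room temperature with start mix of 87.5 μM ATP and 80 nM substrate peptide in pH 7.6 HEPES/MgCl2 buffer.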
In general terms: TR-FRET usually uses a lanthanide donor and a delayed reading to cut background.

[1] abbreviates: read-out: Activity Level (Syk HTRF assay IC50).
Where [2] appears, read: activity levels A-D, read-out: Activity Level (IC50 in the Syk HTRF assay).
Where [3] appears, read: IC50 activity level, read-out: Activity Level.

Structures are written as SMILES. Like-named read-outs stand apart in the source and are kept apart here.

With `Cn1ncc2ccc(Nc3nc4cccc(CC5CCOCC5)n4n3)cc21` [Example 160, N-(1-methyl-1H-indazol-6-yl)-5-((tetrahydro-2H-pyran-4-yl)methyl)-[1,2,4]triazolo[1,5-a]pyridin-2-amine], under setting [1], the IC50 lay in the range of 0.005 to 250 nM. On the same count and under the same terms, for `CC(=O)Nc1cccc(-c2cccc3nc(Nc4ccccc4)nn23)c1` [compound 78, N-(3-(2-(phenylamino)-[1,2,4]triazolo[1,5-a]pyridin-5-yl)phenyl)acetamide] the value was 1000 to 10000 nM. In the case of `CNC(=O)c1ccc(Nc2nc3cccc(C[C@H]4CC[C@@H](O)C4)n3n2)cc1` (single isomer, unassigned; diastereomer 2) [Example 214, 4-(5-((3-hydroxycyclopentyl)methyl)-[1,2,4]triazolo[1,5-a]pyrridin-2-ylamino)-N-methylbenzamide (diastereomer 2)], the IC50 under setting [2] lay within 1000 to 10000 nM. Still for that read-out and setting: next, `Cc1n[nH]c2cc(Nc3nc4cccc(N[C@H]5CC[C@@H](O)CC5)n4n3)ccc12` [Example 351, cis-4-(2-(3-methyl-1H-indazol-6-ylamino)-[1,2,4]triazolo[1,5-a]pyridin-5-ylamino)cyclohexanol]: 0.005 to 250 nM. For the compound `NC(=O)c1ccc(Nc2nc3cccc(-c4ccccc4)n3n2)cn1` [compound 72, 5-(5-phenyl-[1,2,4]triazolo[1,5-a]pyridin-2-ylamino)picolinamide], the IC50 under setting [1] fell in the range of 1000 to 10000 nM.

On to `OC[C@H]1CCN(c2cccc3nc(Nc4ccc(C(F)(F)F)cc4)nn23)C1` [Example 327, (S)-(1-(2-(4-(trifluoromethyl)phenylamino)-[1,2,4]triazolo[1,5-a]pyridin-5-yl)pyrrolidin-3-yl)methanol], for which, under setting [2], the IC50 lay in the range of 250 to 500 nM. For `CN(C)c1ccc(Nc2nc3cccc(-c4ccc5nc(CO)[nH]c5c4)n3n2)cn1` [Example 298, (6-(2-(6-(dimethylamino)pyridin-3-ylamino)-[1,2,4]triazolo[1,5-a]pyridin-5-yl)-1H-benzo[d]imidazol-2-yl)methanol], the IC50 under setting [2] is 0.005 to 250 nM. As for `CNC(=O)c1ccc(Nc2nc3cccc(NC4CCOC4)n3n2)cc1` (stereo not drawn) [Example 441, N-methyl-4-(5-(tetrahydrofuran-3-ylamino)-[1,2,4]triazolo[1,5-a]pyridin-2-ylamino)benzamide], the IC50 under setting [3] is 1000 to 10000 nM.

Regarding `CO[C@H]1CC[C@@H](N(C)c2cccc3nc(Nc4ccc(C(F)(F)F)cc4)nn23)CC1` [Example 265, cis-N^5-(4-methoxycyclohexyl)-N^5-methyl-N^2-(4-(trifluoromethyl)phenyl)-[1,2,4]triazolo[1,5-a]pyridine-2,5-diamine], the IC50 under setting [2] lay within 1000 to 10000 nM. Turning to `CC1(C)C(=O)Nc2cc(Nc3nc4cccc(N[C@H]5CC[C@@](C)(O)CC5)n4n3)ccc21` [Example 163, cis-6-(5-(4-hydroxy-4-methylcyclohexylamino)-[1,2,4]triazolo[1,5-a]pyridin-2-ylamino)-3,3-dimethylindolin-2-one], the IC50 under setting [1] fell in the range of 0.005 to 250 nM.

As to `NC(=O)[C@H]1CC[C@@H](Oc2cccc3nc(Nc4ccc(C(F)(F)F)cc4)nn23)CC1` [Example 344, cis-4-(2-(4-(trifluoromethyl)phenylamino)-[1,2,4]triazolo[1,5-a]pyridin-5-yloxy)cyclohexanecarboxamide], the IC50 under setting [2] was in the range of 500 to 1000 nM. For the compound `CC(=O)Nc1ccc(-c2cccc3nc(Nc4ccccc4)nn23)cc1` [compound 79, N-(4-(2-(phenylamino)-[1,2,4]triazolo[1,5-a]pyridin-5-yl)phenyl)acetamide], the IC50 under setting [1] lay within 250 to 500 nM. The same measure, in the same setting: next, `c1ccc(-c2cccc3nc(Nc4ccncc4)nn23)cc1` [compound 58, 5-phenyl-N-(pyridin-4-yl)-[1,2,4]triazolo[1,5-a]pyridin-2-amine]: 500 to 1000 nM. With `COCc1n[nH]c2cc(Nc3nc4cccc(CC5CCOCC5)n4n3)ccc12` [Example 552, N-(3-(methoxymethyl)-1H-indazol-6-yl)-5-((tetrahydro-2H-pyran-4-yl)methyl)-[1,2,4]triazolo[1,5-a]pyridin-2-amine], the IC50 under setting [3] was in the range of 0.005 to 250 nM.

As to `CC(C)(O)c1nc2ccc(-c3cccc4nc(Nc5ccc(C(F)(F)F)cc5)nn34)cc2[nH]1` [Example 379, 2-(6-(2-(4-(trifluoromethyl)phenylamino)-[1,2,4]triazolo[1,5-a]pyridin-5-yl)-1H-benzo[d]imidazol-2-yl)propan-2-ol], under setting [2], the IC50 lay within 250 to 500 nM.

Consider `O=C1CN(Cc2cccc3nc(Nc4cnc5[nH]ccc5c4)nn23)CCN1` [Example 229, 4-((2-(1H-pyrrolo[2,3-b]pyridin-5-ylamino)-[1,2,4]triazolo[1,5-a]pyridin-5-yl)methyl)piperazin-2-one], for which the IC50 under setting [2] fell in the range of 0.005 to 250 nM. As for `Cc1n[nH]c2ccc(Nc3nc4cccc(N[C@H]5CC[C@H](O)CC5)n4n3)cc12` [compound 127, trans-4-(2-(3-methyl-1H-indazol-5-ylamino)-[1,2,4]triazolo[1,5-a]pyridin-5-ylamino)cyclohexanol], the IC50 under setting [1] fell in the range of 0.005 to 250 nM. Take `NCCCCc1cccc2nc(Nc3ccccc3)nn12` [Example 505, 5-(4-aminobutyl)-N-phenyl-[1,2,4]triazolo[1,5-a]pyridin-2-amine]: under setting [3], the IC50 fell in the range of 500 to 1000 nM. In the case of `O[C@H]1CC[C@@H](Cc2cccc3nc(Nc4ccc(C(F)(F)F)cc4)nn23)CC1` [Example 399, cis-4-((2-(4-(trifluoromethyl)phenylamino)-[1,2,4]triazolo[1,5-a]pyridin-5-yl)methyl)cyclohexanol], the IC50 under setting [3] was in the range of 0.005 to 250 nM. With `CNCc1nc2ccc(-c3cccc4nc(Nc5ccccc5)nn34)cc2o1` [Example 424, 5-(2-((methylamino)methyl)benzo[d]oxazol-6-yl)-N-phenyl-[1,2,4]triazolo[1,5-a]pyridin-2-amine], under setting [3], the IC50 lay in the range of 500 to 1000 nM. As to `Cc1nn(C)c2cc(Nc3nc4cccc(N[C@H]5CC[C@@H](O)CC5)n4n3)cc(F)c12` [Example 149, cis-4-(2-(4-fluoro-1,3-dimethyl-1H-indazol-6-ylamino)-[1,2,4]triazolo[1,5-a]pyridin-5-ylamino)cyclohexanol], the IC50 under setting [1] fell in the range of 0.005 to 250 nM.

As for `N#Cc1ccc(Nc2nc3cccc(N[C@H]4CC[C@@H](O)CC4)n3n2)cn1` [Example 381], the IC50 under setting [2] fell in the range of 1000 to 10000 nM. For `O[C@@H]1CCC[C@@H]1Nc1cccc2nc(Nc3ccc(C(F)(F)F)cc3)nn12` [Example 406, (1R,2S)-2-(2-(4-(trifluoromethyl)phenylamino)-[1,2,4]triazolo[1,5-a]pyridin-5-ylamino)cyclopentanol], the IC50 under setting [3] is 500 to 1000 nM. Turning to `CC(NCc1cccc2nc(Nc3ccc(C(F)(F)F)cc3)nn12)C(N)=O` (racemic) [Example 233, (±)-2-((2-(4-(trifluoromethyl)phenylamino)-[1,2,4]triazolo[1,5-a]pyridin-5-yl)methylamino)propanamide], the IC50 under setting [2] was in the range of 500 to 1000 nM. On the same count and under the same terms, next, `O=C1NCCC1NCc1cccc2nc(Nc3ccc(C(F)(F)F)cc3)nn12` (racemic) [Example 207, (±)-3-((2-(4-(trifluoromethyl)phenylamino)-[1,2,4]triazolo[1,5-a]pyridin-5-yl)methylamino)pyrrolidin-2-one]: 1000 to 10000 nM.

`NC(=O)c1ccc(Nc2nc3cccc(NC4CCCCC4)n3n2)cc1` [Example 560, 4-(5-(cyclohexylamino)-[1,2,4]triazolo[1,5-a]pyridin-2-ylamino)benzamide]: the IC50 under setting [3] was 500 to 1000 nM. Take `O=c1cc(Cc2cccc3nc(Nc4ccc(C(F)(F)F)cc4)nn23)cc[nH]1` [Example 317, 4-((2-(4-(trifluoromethyl)phenylamino)-[1,2,4]triazolo[1,5-a]pyridin-5-yl)methyl)pyridin-2(1H)-one]: under setting [2], the IC50 was in the range of 0.005 to 250 nM. As for `O[C@H]1CC[C@@H](Nc2cccc3nc(Nc4ccc(Cl)cc4)nn23)CC1` [Example 353, cis-4-(2-(4-chlorophenylamino)-[1,2,4]triazolo[1,5-a]pyridin-5-ylamino)cyclohexanol], the IC50 under setting [2] was in the range of 0.005 to 250 nM.

For `Oc1cccc(Nc2nc3cccc(N[C@H]4CC[C@@H](O)CC4)n3n2)n1` [Example 305, cis-6-(5-(4-hydroxycyclohexylamino)-[1,2,4]triazolo[1,5-a]pyridin-2-ylamino)pyridin-2-ol], under setting [2], the IC50 is 1000 to 10000 nM. As to `O[C@H]1CC[C@@H](Nc2cccc3nc(Nc4cccc(Cl)c4)nn23)CC1` [Example 354, cis-4-(2-(3-chlorophenylamino)-[1,2,4]triazolo[1,5-a]pyridin-5-ylamino)cyclohexanol], under setting [2], the IC50 is 0.005 to 250 nM. As for `O=C1CN(Cc2cccc3nc(Nc4ccc(C(F)(F)F)cc4)nn23)C(=O)N1` [Example 252, 1-((2-(4-(trifluoromethyl)phenylamino)-[1,2,4]triazolo[1,5-a]pyridin-5-yl)methyl)imidazolidine-2,4-dione], under setting [2], the IC50 is 1000 to 10000 nM. The same measure, in the same setting: next, `Cc1n[nH]c2cc(Nc3nc4cccc(CN5CCN(c6ccc7c(C)n[nH]c7c6)C(=O)C5)n4n3)ccc12` [Example 234, 1-(3-methyl-1H-indazol-6-yl)-4-((2-(3-methyl-1H-indazol-6-ylamino)-[1,2,4]triazolo[1,5-a]pyridin-5-yl)methyl)piperazin-2-one]: 1000 to 10000 nM. For `c1ccc(Nc2nc3cccc(C4CCCCC4)n3n2)cc1` [Example 525, 5-cyclohexyl-N-phenyl-[1,2,4]triazolo[1,5-a]pyridin-2-amine], the IC50 under setting [3] was 1000 to 10000 nM. The same measure, in the same setting: next, `FC(F)(F)c1n[nH]c2cc(Nc3nc4cccc(CC5CCOCC5)n4n3)ccc12` [Example 540, 5-((tetrahydro-2H-pyran-4-yl)methyl)-N-(3-(trifluoromethyl)-1H-indazol-6-yl)-[1,2,4]triazolo[1,5-a]pyridin-2-amine]: 0.005 to 250 nM; `CC(C)Nc1cccc2nc(Nc3ccc4c(c3)NC(=O)C4(C)C)nn12` [Example 549, 6-(5-(isopropylamino)-[1,2,4]triazolo[1,5-a]pyridin-2-ylamino)-3,3-dimethylindolin-2-one]: 0.005 to 250 nM. As for `c1ccc(-c2cccc3nc(Nc4ccc(N5CCOCC5)nc4)nn23)cc1` [compound 41, N-(6-morpholinopyridin-3-yl)-5-phenyl-[1,2,4]triazolo[1,5-a]pyridin-2-amine], the IC50 under setting [1] was in the range of 0.005 to 250 nM.
